Values quoted from earlier work, collected in patent US8288445B2, “Stable pharmaceutical products” (Nycomed GmbH, priority 2003, dated 2012).

Details: disclosed in U.S. Pat. No. 6,268,533 and WO 00/21487

Compound: COc1ccc(C[C@@H](C)NC[C@H](O)c2ccc(O)c(NC=O)c2)cc1.O=C(O)C(O)C(O)C(=O)O [L-(+)-tartrate salt of R,R-formoterol]
- hygroscopicity: non-hygroscopic
